Patent US9365851B2, “Spalt-like transcription factor 4 (SALL4) and uses thereof” (National University of Singapore, priority 2011, dated 2016)

Columns and labels:
[1] = system: PTEN; test: PTEN expression upon SALL4 gene knockdown in HCC cells (qPCR, Western blot densitometry); type: cell-based, human; conditions: day 4 post-transduction
Text: FIGS. 26A-26C: PTEN repression as a mechanism of SALL4-induced HCC. (26A) qPCR analysis of PTEN expression upon SALL4 gene knockdown. […] E5 shRNA is a shRNA specifically targets SALL4. (26B) Western blot analysis of PTEN protein expression upon SALL4 gene knockdown using fractionated nuclear (N) and cytoplasmic […] lysates. A total cell lysate (T) was used for protein expression analysis too. SALL4 is exclusively present in cell nuclei (left). Densitometry analysis of total PTEN expression (top right) and cytoplasmic PTEN expression (bottom right).
PTEN expression upon SALL4 gene knockdown was investigated by qPCR and western blot.

[2] = system: HDAC1 and HDAC2; test: Anti-FITC pull-down from HL60 cell lysates, immunoblot for HDAC1 and HDAC2; type: binding, human
Procedure: FIG. 18: SALL4 peptide interacts with various components of the NuRD complex. Cell lysates from HL60 cells were mixed with wild type (wt) or mutant (mut) peptides end-labeled with FITC and immunoprecipitated with anti-FITC antibody (Santa Cruz). The complexes were pulled down with Dynabeads Antibody Coupling Kit (Invitrogen) according to the manufacturer's instructions. The samples were immunoblotted and probed for HDAC1 and HDAC2. […] The specificity was tested with mouse IgG instead of anti-FITC antibody.

[3] = system: AML3; test: Cellular uptake of FITC-labeled peptide; type: cell-based
Procedure: (§1) Cells were grown typically in 6 well plates (35 mm dish) to 50-70% confluence. Usually the transfect ion efficiency is somehow cell type specific. 2 mM peptide was diluted 4 times in PBS (2 ul+6 ul) (For FITC peptidedo not dilute the 2 mM stock). For each transfection reaction tube with 100 ul PBS+1 ul diluted peptide was set up. Chariot reagent was diluted 1:10 in ddH2O and for each transfection a 94 ul H2O tube+6 ul diluted Chariot was prepared (No master mix for more than 4 transfections). The 2 tubes were carefully mixed by pipetting up and down and incubated 30 min. at room temperature. Medium was aspirated from the dish (well) and cells were overlay with the mix. 400 ul serum free medium was added and cells were incubated further for 1 h 37 C (cell incubator). 500 ul complete medium (with 10% serum) was finally added. If cells are not very sensitive to serum starvation (cancer cell lines) 5% serum could be used.
(§2) Fluorescent and Confocal microscopy was performed on cells treated with FITC labeled peptides with or without of transfection reagent depending on the cell type. Cells were mounted on cover slips using mounting media with DAPI (Invitrogen) and in some cases cytoskeleton dye (Invitrogen).
(§3) In order to evaluate their cellular uptake and localization, the N terminus of these peptides was labeled with fluorescein isothiocyanate (FITC). Despite the net positive charge of these peptides, their uptake by the cells is cell-type specific. Some cell lines such as HL-60 (an AML cell line) allowed the peptide to enter the cells without any modification or carrier, and some cell lines were not penetrable at all. In order to achieve a similar level of peptide delivery in most cell types, a Chariot Transfection Reagent (Active Motif) was used as a peptide carrier, as directed from the manufacturer. All cell types used in the study described herein were subjected to individual evaluation of the percentage of the cells in which the peptide was delivered as well as the duration of time during which they sustained the labeled peptide in the cells. After Chariot treatment, confocal microscopy studies confirmed uptake of these peptides throughout the cell, including nuclei (as evidenced by DAPI overlay, FIG. 1B).

[4] = system: CD34+; test: Cellular uptake of FITC-labeled peptide; type: cell-based
Procedure: as §1, §2, §3

[5] = system: HeLa; test: Cellular uptake of FITC-labeled peptide; type: cell-based
Procedure: as §1, §2, §3

[6] = system: KG1a; test: Cellular uptake of FITC-labeled peptide; type: cell-based
Procedure: as §1, §2, §3

[7] = system: MCF7; test: Cellular uptake of FITC-labeled peptide; type: cell-based
Procedure: as §1, §2, §3

[8] = system: NP4; test: Cellular uptake of FITC-labeled peptide; type: cell-based
Procedure: as §1, §2, §3

[9] = system: AN3CA cells; test: Cell viability assay (MTT/MTS); type: cell-based, human; conditions: AN3CA (high SALL4, no PTEN)
Procedure: Cell viability assay (MTT) (Invitrogen) was performed according to the manufacturer's instructions. Briefly—10000 cells were seeded in 100 ul medium in 96 well plates. The next day cells were treated as indicated on the figures. At the designated time after the treatment 20 ul of 5 mg/ml MTT solution was added to each well. After 3.5 h incubation at 37 C the medium was removed and the reaction was terminated with a solution of 4 mM HCl, 0.1% Nondet P-40 (NP40) all in isopropanol in dark on orbital shaker for […]. at room temperature. The absorbance was read at 590 nm with a reference filter of 620 nm in Spectromax M3 (ABI) spectrophotometer.
Multiple leukemic and solid tumor cancer cell lines with high or low/no SALL4 expression (FIG. 10A) were chosen to test the biological effect(s) of the wild type peptide. Wild type or scrambled peptide was delivered into tumor cells at various concentrations, and their effects on cells were evaluated 72 hours post-treatment by the MTS cell viability assay. […] The effect of wild type peptide is SALL4-specific, as it had no effect on KBM5, an AML cell line with undetectable endogenous SALL4 expression. We were surprised to see that the wild type peptide had no effect on a high SALL4-expressing endometrioid cancer cell line, AN3CA. […] Therefore, expression of PTEN was evaluated in AN3CA cells along with other cell lines. […]

Substance | increase of PTEN mRNA [1] [%] | binding to HDAC1 and HDAC2 [2] | peptide uptake (cells with peptide) ([3]; AML3, no carrier) [%] | peptide uptake (cells with peptide) ([3]; AML3, with Chariot) [%] | peptide uptake (cells with peptide) ([4]; no carrier) [%] | peptide uptake (cells with peptide) ([4]; with Chariot) [%] | peptide uptake (cells with peptide) ([5]; no carrier) [%] | peptide uptake (cells with peptide) ([5]; with Chariot) [%] | peptide uptake (cells with peptide) ([6]; no carrier) [%] | peptide uptake (cells with peptide) ([6]; with Chariot) [%] | peptide uptake (cells with peptide) ([7]; MCF7, no carrier) [%] | peptide uptake (cells with peptide) ([7]; MCF7, with Chariot) [%] | peptide uptake (cells with peptide) ([8]; NP4, no carrier) [%] | peptide uptake (cells with peptide) ([8]; NP4, with Chariot) [%] | cell viability [9]
CTATTTAGCCAAAGGCAAA (short hairpin RNA, chemistry and delivery not given here, further chemistry not given here) [E5 shRNA] | 16.5 | – | – | – | – | – | – | – | – | – | – | – | – | – | –
H-MSRRKQAKPQHI-OH [wt peptide, MSRRKQAKPQHI] | – | several folds higher activity than the mutant | ~5 | 50 | 0 | 50 | 0 | 80 | >10 | 60 | ~50 | 70 | >1 | >5 | had no effect
